In patent publication US6531598B1, “Naphthostyrils” (Hoffmann-La Roche Inc., priority 2001, dated 2003):
Structures can show the parent of a compound that is named as a salt.

Experiments:
human Cyclin E/CDK2 = target: T1, human Cyclin E/CDK2 (Homo sapiens, UniProt P24941); test: CDK2 FlashPlate Assay; type: biochemical; conditions: inhibition of Rb phosphorylation, 33P-ATP, 25 minutes at room temperature
T1 construct: made in house; host or cells: insect cells
Experimental: To determine inhibition of CDK2 activity, purified recombinant retinoblastoma (Rb) protein was coated on 96 well FlashPlates (New England Nuclear, Boston, Mass.). […] Recombinant active human Cyclin E/CDK2 complexes were partially purified from extracts of insect cells. […] Plates were incubated for 25 minutes at room temperature with shaking, then washed and counted in the Topcount scintillation counter (Packard Instrument Co., Downers Grove, Ill.). Dilutions of test compounds were tested in duplicate in each assay. The percent inhibition of Rb phosphorylation, which is a measure of the inhibition of CDK2 activity, was determined according to the following formula: [formula]
where “test compound” refers to the average counts per minute of the test duplicates, “nonspecific” refers to the average counts per minute when no Cyclin E/CDK2 was added, and “total” refers to the average counts per minute when no compound was added.

[1] = system: MDA-MB435 breast carcinoma cell line; test: Tetrazolium dye proliferation assay, MDA-MB435; type: cell-based; conditions: MTT, 5 days post addition of test compound, 2000 cells per well
Experimental: (§1) The cell lines used were MDA-MB435, a breast carcinoma dell line and RKO, a colon carcinoma cell line.
(§2) Teh estrogen receptor negative epithelial breast carcinoma line (MDA-MB435) was purchased from American Type Cell Culture Collection (ATCC; Rockville, Md.) and was grown in the medium recommended by ATCC. For analysis of the test compounds on growth of these cells, the cells were plated at 2000 cells per well in a 96-well tissue culture plate, and were incubated overnight at 37° C. with 5% CO2. The next day, the test compounds were dissolved in 100% dimethyl sulfoxide (DMSO) to yield a 10 mM stock solution. […] The compounds were then serially diluted in medium with 1.2% DMSO. One-fourth final volume of the diluted compounds was transferred to 96 well plates. Test compounds were assayed in duplicate. DMSO was added to a row of “control cells” such that the final concentration of DMSO in each well was 0.3%. Wells to which no cells were added served as the “blank.” Wells to which no inhibitor was added served as “no inhibitor control”. The plates were returned to the incubator, and 5 days post addition of test compound, were analyzed as described below.
(§3) 3-(4,5-Dimethylthiazole-2-yl)-2,5-diphenyl-2H-tetrazolium bromide (thiazolyl blue; MTT) was added to each well to yield a final concentration of 1 mglmL. The plates were then incubated at 37° C. for 3 hours. The plates were centrifuged at 1000 rpm for 5 minutes prior to aspiration of the MTT-containing medium. The MTT-containing medium was then removed and 100 μL 100% EtOH was added to each well to dissolve the resulting formazan metabolite. To ensure complete dissolution, plates were shaken for 15 minutes at room temperature. Absorbencies were read in a microliter plate reader (Molecular Dynamics) at a wavelength of 570 nm with a 650 nm reference. Percent inhibition was calculated by subtracting the absorbency of the blank (no cell) wells from all wells, then subtracting the division of the average absorbency of each test duplicate by the average of the controls from 1.00. Inhibitory concentrations (IC50) were determined from the linear regression of a plot of the logarithm of the concentration versus the percent inhibition.

[2] = system: RKO colon carcinoma cell line; test: Tetrazolium dye proliferation assay, RKO; type: cell-based; conditions: MTT, 5 days post addition of test compound, 500 cell per well
Experimental: as §1, §2, §3
The colon carcinoma line RKO was also obtained from the ATCC and was tested according to the same protocol provided above except that the cell line RKO was plated at 500 cell per well.

[3] = Homo sapiens, MDA-MB-435, 120 h

SMILES	IC50 (human Cyclin E/CDK2)	IC50 [1, 3]	IC50 ([2]; Colon carcinoma cell, 120 h)	IC50 [1]	IC50 [2]
CCc1cc(-c2ccc[nH]2)c2c3c(ccc(F)c13)NC2=O [Example 27, 5-Ethyl-6-fluoro-3-(1H-pyrrol-2-yl)-1H-benzo[cd]indol-2-one]	≤ 10 µM				
O=C1Nc2ccc(F)c3c(N4CCC(O)CC4)cc(-c4ccc[nH]4)c1c23 [Example 33, 6-Fluoro-5-(4-hydroxy-piperidin-1-yl)-3-(1H-pyrrol-2-yl)-1H-benzo[cd]indol-2-one]	≤ 10 µM	≤ 10 µM	≤ 10 µM		
NCCCNc1cc(-c2ccc[nH]2)c2c3c(ccc(F)c13)NC2=O [Example 21, 5-(3-Amino-propylamino)-6-fluoro-3-(1H-pyrrol-2-yl)-1H-benzo[cd]indol-2-one acetic acid salt]	≤ 10 µM	≤ 10 µM	≤ 10 µM		
O=C1Nc2ccc(F)c3c([S+]([O-])CCO)cc(-c4ccc[nH]4)c1c23 (centres unmarked) [Example 37, 6-Fluoro-5-(2-hydroxy-ethanesulfinyl)-3-(1H-pyrrol-2-yl)-1H-benzo[cd]indol-2-one]			≤ 10 µM		
O=C1Nc2ccc(F)c3c(OCCCO)cc(-c4ccc[nH]4)c1c23 [Example 17, 6-Fluoro-5-(3-hydroxy-propoxy)-3-(1H-pyrrol-2-yl)-1H-benzo[cd]indol-2-one]	≤ 10 µM				
NCCS(=O)(=O)c1cc(-c2ccc[nH]2)c2c3c(ccc(F)c13)NC2=O [Example 44, 5-(2-Amino-ethanesulfonyl)-6-fluoro-3-(1H-pyrrol-2-yl)-1H-benzo[cd]indol-2-one]	≤ 10 µM	≤ 10 µM	≤ 10 µM		
O=C1Nc2ccc(F)c3c(OCCO)cc(-c4ccc[nH]4)c1c23 [Example 16, 6-Fluoro-5-(2-hydroxyethoxy)-3-(1H-pyrrol-2-yl)-1H-benzo[cd]indol-2-one]	≤ 10 µM	≤ 10 µM	≤ 10 µM		
O=C1Nc2ccc(F)c3c(SCCO)cc(-c4ccc[nH]4)c1c23 [Example 36, 6-Fluoro-5-(2-hydroxyethylsulfanyl)-3-(1H-pyrrol-2-yl)-1H-benzo[cd]indol-2-one]	≤ 10 µM	≤ 10 µM	≤ 10 µM		
O=C1Nc2ccc(F)c3ccc(-c4ccc[nH]4)c1c23 [Example 7, 6-Fluoro-3-(1H-pyrrol-2-yl)-1H-benzo[cd]indol-2-one]	≤ 10 µM	≤ 10 µM	≤ 10 µM		
NCCOc1cc(-c2ccc[nH]2)c2c3c(ccc(F)c13)NC2=O [Example 20, 5-(2-Amino-ethoxy)-6-fluoro-3-(1H-pyrrol-2-yl)-1H-benzo[cd]indol-2-one methanesulfonic acid salt]	≤ 10 µM				
O=C1Nc2ccc(F)c3c(N4CCOCC4)cc(-c4ccc[nH]4)c1c23 [Example 23, 6-Fluoro-5-morpholin-4-yl-3-(1H-pyrrol-2-yl)-1H-benzo[cd]indol-2-one]	≤ 10 µM	≤ 10 µM	≤ 10 µM		
O=C1Nc2ccc(F)c3c(N4CCCC(O)C4)cc(-c4ccc[nH]4)c1c23 (centres unmarked) [Example 35, 6-Fluoro-5-(3-hydroxy-piperidin-1-yl)-3-(1H-pyrrol-2-yl)-1H-benzo[cd]indol-2-one]		≤ 10 µM	≤ 10 µM		
Cc1c[nH]c(-c2cc(SCCN)c3c(F)ccc4c3c2C(=O)N4)c1C [Example 50, 5-(2-Amino-ethylsulfanyl)-6-fluoro-3-(3,4-dimethyl-1H-pyrrol-2-yl)-1H-benzo[cd]indol-2-one trifluoroacetic acid salt]	≤ 10 µM	≤ 10 µM	≤ 10 µM		
CCOc1cc(-c2ccc[nH]2)c2c3c(ccc(F)c13)NC2=O [Example 14, 5-Ethoxy-6-fluoro-3-(1H-pyrrol-2-yl)-1H-benzo[cd]indol-2-one]	≤ 10 µM				
NCCSc1cc(-c2ccc[nH]2)c2c3c(ccc(F)c13)NC2=O [Example 40, 5-(2-Amino-ethylsulfanyl)-6-fluoro-3-(1H-pyrrol-2-yl)-1H-benzo[cd]indol-2-one]	≤ 10 µM	≤ 10 µM	≤ 10 µM		
O=C1Nc2ccc(F)c3c(S(=O)(=O)CCO)cc(-c4ccc[nH]4)c1c23 [Example 38, 6-Fluoro-5-(2-hydroxy-ethanesulfonyl)-3-(1H-pyrrol-2-yl)-1H-benzo[cd]indol-2-one]	≤ 10 µM	≤ 10 µM	≤ 10 µM		
O=C1Nc2ccc(F)c3c2C1=C(c1ccc[nH]1)CC3 [Example 6, 6-fluoro-3-(1H-pyrrol-2-yl)-4,5-dihydro-1H-benzo[cd]indol-2-one]	≤ 10 µM	≤ 10 µM	≤ 10 µM		
NCCOc1cc(-c2ccc[nH]2)c2c3c(ccc(F)c13)NC2=O [Example 19, 5-(2-Amino-ethoxy)-6-fluoro-3-(1H-pyrrol-2-yl)-1H-benzo[cd]indol-2-one]		≤ 10 µM	≤ 10 µM		
O=C1Nc2ccc(F)c3c(N4CCNCC4)cc(-c4ccc[nH]4)c1c23 [Example 24, 6-Fluoro-5-piperazin-1-yl-3-(1H-pyrrol-2-yl)-1H-benzo[cd]indol-2-one acetic acid salt]	≤ 10 µM	≤ 10 µM	≤ 10 µM		
CC(C)(N)CNc1cc(-c2ccc[nH]2)c2c3c(ccc(F)c13)NC2=O [Example 22, 5-(2-Amino-2-methyl-propylamino)-6-fluoro-3-(1H-pyrrol-2-yl)-1H-benzo[cd]indol-2-one]	≤ 10 µM	≤ 10 µM	≤ 10 µM		
CCC(C)c1cc(-c2ccc[nH]2)c2c3c(ccc(F)c13)NC2=O (racemic) [Example 26, (rac)-5-sec-Butyl-6-fluoro-3-(1H-pyrrol-2-yl)-1H-benzo[cd]indol-2-one]	≤ 10 µM				
NCC[S+]([O-])c1cc(-c2ccc[nH]2)c2c3c(ccc(F)c13)NC2=O (centres unmarked) [Example 43, 5-(2-Amino-ethanesulfinyl)-6-fluoro-3-(1H-pyrrol-2-yl)-1H-benzo[cd]indol-2-one hydrochloride salt]				≤ 10 µM	≤ 10 µM
COc1cc(-c2ccc[nH]2)c2c3c(ccc(F)c13)NC2=O [Example 13, 6-Fluoro-5-methoxy-3-(1H-pyrrol-2-yl)-1H-benzo[cd]indol-2-one]	≤ 10 µM	≤ 10 µM	≤ 10 µM		
Cc1cc(-c2ccc[nH]2)c2c3c(ccc(F)c13)NC2=O [Example 25, 6-Fluoro-5-methyl-3-(1H-pyrrol-2-yl)-1H-benzo[cd]indol-2-one]	≤ 10 µM				
CC(=O)NCCNc1cc(-c2ccc[nH]2)c2c3c(ccc(F)c13)NC2=O [Example 29, N-[2-[6-Fluoro-2oxo-3-(1H-pyrrol-2-yl)-1,2-dihydro-benzo[cd]indol-5-ylamino]-ethyl]-acetamide]	≤ 10 µM				
O=C1Nc2ccc(F)c3c(NCCO)cc(-c4ccc[nH]4)c1c23 [Example 15, 6-Fluoro-5-(2-hydroxy-ethylamino)-3-(1H-pyrrol-2-yl)-1H-benzo[cd]indol-2-one]	≤ 10 µM	≤ 10 µM	≤ 10 µM		
CCN(CC)CCNc1cc(-c2ccc[nH]2)c2c3c(ccc(F)c13)NC2=O [Example 31, 5-(2-Diethylamino-ethylamino)-6-fluoro-3-(1H-pyrrol-2-yl)-1H-benzo[cd]indol-2-one]	≤ 10 µM				
O=C1Nc2ccc(F)c3c(N4CCCC(CO)C4)cc(-c4ccc[nH]4)c1c23 (centres unmarked) [Example 34, 6-Fluoro-5-(3-hydroxymethyl-piperidin-1-yl)-3-(1H-pyrrol-2-yl)-1H-benzo[cd]indol-2one]		≤ 10 µM	≤ 10 µM		
O=C1Nc2ccc(F)c3c(N4CCNC4=O)cc(-c4ccc[nH]4)c1c23 [Example 28, 6-Fluoro-5-(2-oxo-imidazolidin-1-yl)-3-(1H-pyrrol-2-yl)-1H-benzo[cd]indol-2-one]	≤ 10 µM				
NCC[S+]([O-])c1cc(-c2ccc[nH]2)c2c3c(ccc(F)c13)NC2=O (centres unmarked) [Example 42, 5-(2-Amino-ethanesulfinyl)-6-fluoro-3-(1H-pyrrol-2-yl)-1H-benzo[cd]indol-2-one]		≤ 10 µM	≤ 10 µM		
